The record followed here is publication doi:10.1101/365908v1 (biorxiv, 2018).

Broadly, the IC50 is the point on the concentration scale where inhibition reaches its midpoint. Read a low IC50 as greater potency.

This assay addresses T1, human GSDMD (full-length) (Homo sapiens, UniProt P57764).
T1 sequence (P57764 1-484): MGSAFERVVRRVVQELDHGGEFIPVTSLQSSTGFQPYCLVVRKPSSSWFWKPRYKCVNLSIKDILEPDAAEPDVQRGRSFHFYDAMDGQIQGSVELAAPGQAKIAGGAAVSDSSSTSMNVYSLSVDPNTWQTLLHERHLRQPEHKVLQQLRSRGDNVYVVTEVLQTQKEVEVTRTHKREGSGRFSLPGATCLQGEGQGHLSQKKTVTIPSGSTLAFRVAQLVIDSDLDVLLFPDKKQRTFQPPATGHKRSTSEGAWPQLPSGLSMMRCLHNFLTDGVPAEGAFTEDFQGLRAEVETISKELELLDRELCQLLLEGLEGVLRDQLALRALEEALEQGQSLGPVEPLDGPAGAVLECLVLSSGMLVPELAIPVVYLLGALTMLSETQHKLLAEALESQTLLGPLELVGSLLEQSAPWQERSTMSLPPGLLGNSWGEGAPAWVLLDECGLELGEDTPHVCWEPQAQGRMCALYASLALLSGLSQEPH
In words: Tb3+/DPA liposome leakage. It is filed as biochemical. The following applies: covalent (Cys191); 1 h preincubation; cleavage by 0.15 µM caspase-11; no Cu(II).

SMILES strings stand for the structures.

Take `CCN(CC)C(=S)SSC(=S)N(CC)CC` [C-23, Tetraethylthiuram disulfide]: the IC50 came out at 300 ± 10 nM.
